Source: paper PMC9748900, “Unconventional isoquinoline-based SERMs elicit fulvestrant-like transcriptional programs in ER+ breast cancer cells” (NPJ Breast Cancer, 2022)
Entries after “also recorded” stand apart in the source; their conditions may differ.

What was measured:
[1] = system: transcriptome of T47D breast cancer cells; assay: RNA sequencing of T47D cells; assay type: cell-based
Method: We next used RNA transcriptomic analysis (RNAseq) to identify differentially affected genes. […] All sequencing runs were performed with three replicates per treatment.
T47D breast cancer cells were grown in 6-well dishes at 50,000 cells per well. […] After 24 h, they were placed in serum-starved media for 48 h. […] RNA was isolated using a Qiagen RNeasy Kit then sent to Novogene for sequencing and bioinformatics analysis.

[2] = system: gene expression in MCF7:WS8 breast cancer cells; assay: qPCR gene expression in MCF7:WS8 cells
[3] = system: Ishikawa endometrial cells; assay: Alkaline phosphatase (AP) assay in Ishikawa cells; assay type: cell-based, human; conditions: 1 nM E2 or 1 μM compound, 72 h, absorbance at 405 nm, mean + std. dev., n = 3-9
Excerpt: SERM enhancement of ERα accumulation in breast cancer cells correlates with uterotrophic activities[22],[30]. Despite the inclusion of side arms from known SERDs, most T6Is appeared SERM-like in breast cancer cells as they increased ERα levels. To measure the SERM-agonist activities of the T6Is, we employed an AP activity assay in Ishikawa endometrial cells[22],[32],[40]. […] Many T6Is show unexpected AP activities in these cells. […] Therefore, we would expect these SERMs to show a greater induction of AP (Supplementary Fig. 5). […] This difference was significant (p = 0.004) compared to 4OHT, which measured 0.68 ± 0.12 absorbance units. In most studies of SERM-agonist activities, AP assays are combined with increases in uterine wet-weight in vivo[22],[41],[42].
AP assays were performed as described. Briefly, 15,000 Ishikawa cells were seeded into 96-well plates then placed in serum-starved medium for 48–72 h. Cells were treated for three days with veh, hormone, SERM, or SERD. The media was aspirated and the cells were frozen at −80 °C for at least 24 h. Cells were thawed then incubated with p-nitrophenyl phosphate (ThermoFisher) chromogenic AP substrate. After 60 min at 40 °C, absorbance was read at 405 nm on a BioTek Cytation 5 plate reader.

[4] = system: gene expression in T47D breast cancer cells; assay: qPCR gene expression in T47D cells; assay type: cell-based; conditions: 1 μM + 1 nM E2, 16 h
SUMO1 = SUMO1 immunofluorescence in T47D cells; assay type: cell-based; conditions: 1 µM, 16 h
Method: Immunofluorescence was used to study the effects of these treatments on SUMO1 protein expression in these cells. […] Cellular localization was resolved using phalloidin to stain actin and DAPI to stain nuclei. […] Further studies are needed to decipher the role and estrogen dependence of SUMO1 in ER + breast cancer pathology.
T47D cells were cultured on coverslips for 24 h followed by 48 h growth in serum starved media. […] Cells were fixed for 10 min with 4% paraformaldehyde at room temperature was followed by three washes with ice-cold PBS-T (0.1% Tween 20, PBS) and 10 min of permeabilization with 0.5% saponin in PBS. Blocking was performed with 1% bovine serum albumin (BSA) in PBS-T for 30 min. Cells were incubated in a humidified chamber with 1:500 rabbit monoclonal anti-SUMO1 antibody (Abcam Ltd, Cambridge, UK, ab32058) in 1% BSA for 1 h at room temperature. Cells were washed 3 times with PBS-T, then incubated in the dark for 1 h with 1:1000 goat anti-rabbit IgG H&L (Alexa Fluor® 488) antibody (Abcam Ltd, ab150077) as well as 1:1000 phalloidin-iFluor 594 reagent (Abcam Ltd, ab176757) in 1% BSA. […] Quantification of nuclear fluorescent signal was performed using ImageJ 1.53t software. Fluorescent intensity of all nuclei within captured frames were measured and normalized by subtracting mean background fluorescence of 5 representative areas.

ERα-SRC3 binding = biological target: T1, ERα-SRC3 binding (Homo sapiens, UniProt P03372); assay: NanoBiT ERα-SRC3 assay in HEK293T cells; assay type: cell-based; conditions: 1 μM antagonist + 1 nM E2, 4 h
T1 construct: expressed in transfected cells; host or cells: HEK293T, transient co-transfection of pcDNA3.1 plasmids (gift of D. P. McDonnell)
T1 sequence (P03372 1-595): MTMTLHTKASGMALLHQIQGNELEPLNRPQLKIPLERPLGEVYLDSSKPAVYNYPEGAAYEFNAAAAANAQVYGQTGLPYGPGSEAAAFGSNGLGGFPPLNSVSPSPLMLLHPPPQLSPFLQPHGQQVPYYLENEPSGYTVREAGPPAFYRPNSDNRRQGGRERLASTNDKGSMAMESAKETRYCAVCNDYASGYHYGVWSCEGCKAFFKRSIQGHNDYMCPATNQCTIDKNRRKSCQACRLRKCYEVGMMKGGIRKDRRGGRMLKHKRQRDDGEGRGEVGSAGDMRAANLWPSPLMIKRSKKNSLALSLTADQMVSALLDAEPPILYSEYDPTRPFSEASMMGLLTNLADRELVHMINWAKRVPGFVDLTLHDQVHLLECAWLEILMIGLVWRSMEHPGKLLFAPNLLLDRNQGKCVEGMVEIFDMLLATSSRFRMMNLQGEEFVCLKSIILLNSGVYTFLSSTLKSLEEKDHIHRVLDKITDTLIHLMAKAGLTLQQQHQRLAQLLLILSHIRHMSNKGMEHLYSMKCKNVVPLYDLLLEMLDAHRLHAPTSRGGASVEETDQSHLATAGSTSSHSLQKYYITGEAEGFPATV
Method: SERMs and SERDs favor an ERα LBD protein conformation that occludes transcriptional coactivator binding. We used nanoBiT to study how the first set of T6I molecules inhibited ERα and steroid receptor coactivator-3 (SRC3) binding in HEK293T cells. […] Plasmids for smBiT-ERα and lgBiT-SRC3 were kindly donated by Dr. Donald P. McDonnell. Plasmids were co-transfected into HEK293T cells and placed in serum-starved medium for 48 h.
HEK293T cells were grown in 96-well clear bottom, white-walled plates to around 70% confluence. PCDNA 3.1 plasmids containing N-terminally tagged smBiT ERα or lgBiT SRC3 nuclear recognition domain (NRD) were kindly donated by Dr. Donald P. McDonnell. These plasmids were co-transfected with a total of 0.1 µg smBiT ERα and 0.1 µg LgBiT SRC3 NRD using Turbofectin 8.0 at a 3:1 ratio. After 24 h cells were placed in serum-starved media and allowed to acclimate for an additional 48–72 h. […] Data shown are the average of three independent replicates.

ERα [5] = biological target: T2, ERα (Homo sapiens, UniProt P03372); assay: ERE transcriptional reporter gene assay in MCF7 cells; assay type: cell-based; set-up: endogenous in cells; host or cells: MCF7 cells with 3x-ERE-GFP reporter; conditions: MCF7, 1 nM E2
T2 sequence (P03372 1-595): T1 sequence (P03372 1-595)
Method: A cyclopropyl group was used in place of RAD1901’s ethylamine. […] We initially synthesized 4 derivatives comprised of different pharmacophores on the analogous steroidal A ring (Fig. 2d) and used an ERE reporter gene assay in MCF7 breast cancer cells to measure their transcriptional inhibitory activities.
This assay was performed in accordance with a previous report. MCF7 breast cancer cells with a 3x-estrogen response element-green fluorescent protein (GFP) reporter gene construct under a CMV promoter were plated in 96-well dishes at 3000 cells per well. Cells were cultured for 48 h in stripped media that included charcoal stripped fetal bovine serum (FBS). Cells were treated with increasing concentrations of antiestrogen (5 pm to 1 µM) for 24 h. Subsequently, percent GFP-positive cells were imaged using a BioTek Cytation 5 live cell imager. All assays were performed three times with three technical replicates each.

halo-ERα = biological target: T3, halo-ERα (Homo sapiens, UniProt P03372); assay: Live-cell halo-ERα accumulation assay in T47D cells; assay type: cell-based; conditions: 1 μM, 24 h
T3 construct: expressed in transfected cells; host or cells: T47D cells, doxycycline-inducible halo-ERα
T3 sequence (P03372 1-595): T1 sequence (P03372 1-595)
Excerpt: SERMs and SERDs differentially affect ERα cellular lifetime/accumulation, which correlates with tissue-specific partial agonistic activities. SERMs increase WT ERα lifetime and are partial agonists in the bone and uterine epithelium by maintaining AF-1-dependent transcriptional coactivator recruitment. SERDs induce rapid WT ERα degradation and are pure antagonists[14],[17],[19],[22],[33]. […] We used an in-cell Western approach to measure how a subset of T6Is affected ERα levels in MCF7:WS8 breast cancer cells. […] A live cell halo-tagged ERα assay was then used to measure the impact of an expanded set of T6Is on receptor accumulation in T47D breast cancer cells after 24 h treatment. […] The difference between T6I-14 and 4OHT was not statistically significant in this assay. […] The IC50 values generally trended with observed differences in transcriptional IC50 (Fig. 2), while the effect at maximum dose varied greatly.
This assay was performed in accordance with a previous report. T47D breast cancer cells with a halo-ERα under a doxycycline (dox) control were grown in 96-well dishes starting at 3000 cells per well. Cells were placed in serum-starved media for 48–72 h then simultaneously treated with 1 µg/mL dox, and 1 µM Halo-TMR direct (Promega, G2991) alongside 5 pm to 1 µM compound for 24 h. […]

MCF7 breast cancer cells = assay: Crystal violet cellular viability assay; assay type: cell-based; conditions: MCF7, 1 to 1000 nM, 1 nM E2, 7 days
Method: (§1) In addition, we used a crystal violet assay to measure the effect of T6I-14-1 on MCF7 viability.
MCF7 breast cancer cells were placed in 24-well dishes at 15,000 cells per well. After 24 h, they were placed in serum-starved media for 48 to 72 h. […] After treatment, cells were stained with 0.4% crystal violet in 50% methanol for 30 min. Cells were washed with PBS to remove excess dye. 500 µL of methanol was then added to each well to dissolve the dye and placed on a rocker for 30 min at room temperature and the absorbance at 570 was recorded.

T47D breast cancer cells = assay: Cellular proliferation (label-free cell count), T47D; assay type: cell-based; conditions: 0.1 and 1 μM, 1 nM E2
Method: as §1
MCF7, MCF7:WS:8, Y537S ESR1 MCF7 and T47D breast cancer cell lines were grown in 96-well dishes at a starting cell count of 1000 cells per well. […] Cells were grown in a BioSpa attached to a BioTek Cytation 5 and were automatically counted every twelve hours for 7–10 days or until the E2-only wells reached confluence. Media was replaced every 4 days and drug was maintained in each media change. Each study was repeated three times with three technical replicates each.

ERα [6] = biological target: T2, ERα; assay: In-cell Western of ERα levels in T47D cells; assay type: cell-based; set-up: In-cell Western of endogenous ERα levels normalized to cell count in T47D breast cancer cells; endogenous in cells; host or cells: T47D breast cancer cells; conditions: 1 μM
Method: An in-cell Western assay was used to measure the effect of the purified T6I-29 enantiomers on the accumulation of ERα in T47D breast cancer cells at 1 μM dose.
In-cell Western analysis was performed in a similar manner as previously described. Briefly, T47D or MCF7:WS8 breast cancer cells were grown in blackout 96-well plates starting at 3000 cells per well. After 24 h, cells were placed in serum-starved media and allowed to acclimate for 48–72 h. Cells were treated with hormone, SERM, or SERD alongside vehicle control for 24 h. Only interior wells were used to avoid edge effects. Cells were fixed with 4% formaldehyde and permeabilized with 0.1% Triton X-100. Plates were blocked with Intercept blocking buffer (LI-COR). Santa Cruz F10 anti-ERα antibody (sc-8002) was used as the primary at 1:200-500 dilution. Secondary antibody was a goat anti-mouse IgG 800 IRDye antibody (926-32210) from LI-COR. Cells were also treated with CellTag700 (926-41090) to control for differences in cell count between wells. All data were collected on a LI-COR Odyssey DLx and analyzed using Emperia Studio. Each experiment was comprised of three replicates.

anti-transcriptional activity (in words) (ERα [5])	ERα levels by in-cell Western (ERα [6])	SMILES	SUMO-related differentially expressed genes (RNAseq) [1]	Reactome pathways relating to SUMO E3 ligases ([1]; 1 μM + 1 nM E2)	CDK1 mRNA ([2]; MCF7:WS8)	E2F1, CDK1 and SUMO1 mRNA ([2]; MCF7:WS8, compared with T47D)	AP1 Induction [3]	E2F1 mRNA [4]	SUMO1 protein expression (immunofluorescence) (SUMO1)	inhibition of ERα-SRC3 binding (luminescence) (ERα-SRC3 binding)	halo-ERα accumulation at maximum dose (halo-ERα)	cellular viability (crystal violet) (MCF7 breast cancer cells)	cell count after 7 days (fold-change normalized to vehicle) (T47D breast cancer cells)
		C[C@]12CC[C@@H]3c4ccc(O)cc4C[C@@H](CCCCCCCCC[S+]([O-])CCCC(F)(F)C(F)(F)F)[C@H]3[C@@H]1CC[C@@H]2O (stereo partly shown) [ICI, fulvestrant]	upregulated SUMO1 and downregulated the SENP enzymes	significantly enriched	downregulated its expression	greater downregulation of E2F1 and CDK1 and upregulation of SUMO1	0.25 + 0.08	reduced impact	enriched SUMO1 expression in the nuclei				
ineffective anti-transcriptional agent		CCN1CC(Oc2ccc(C3c4ccc(O)cc4CC4(CC4)N3C(=O)c3ccccc3)cc2)C1 (stereo not shown) [T6I-1]					0.30 + 0.07			the least	SERD-like decrease to ERα levels; also recorded: weak ERα-degrading activities		
	enhanced ERα levels past 4OHT	CCCN1CCC(COc2ccc(C3c4ccc(O)cc4CC4(CC4)N3C(=O)c3ccccc3)cc2)C1 (stereo not shown) [T6I-14-1]					0.55 + 0.09			among the most potent; also recorded: significant reduction compared to both 4OHT (p = 0.03) and E2 (p = 0.004)		reduced MCF7 cellular viability across all doses compared to 4OHT and ICI	significantly more effective (p = 0.01) than ICI
